Paper PMC10755736, “Modulating Liquid–Liquid Phase Separation of Nck Adaptor Protein against Enteropathogenic Escherichia coli Infection” (ACS Central Science, 2023)
Entries after “also recorded” stand apart in the source; their conditions may differ. Non-standard residues stand in square brackets, D forms with d. Residues, ends and D or L forms follow the SMILES beside them. *: point of attachment. Biotin = O=C1N[C@H]2[C@H](CS[C@H]2CCCCC(=O)*)N1; Benzoyl(4-SO2F) = O=C(c1ccc(S(=O)(=O)F)cc1)*; pY = N[C@@H](Cc1ccc(OP(=O)(O)O)cc1)C(=O)O; Dap = NC[C@H](N)C(=O)O

Columns and labels:
Nck = target: T1, Nck (Homo sapiens, UniProt P16333); assay: Crosslinking of peptides with recombinant Nck in vitro (SDS-PAGE, Western blotting); assay type: binding; conditions: PBS, 1 h
T1 construct: GST (followed by PreScission/HRV 3C site) (N, cleaved yes); made in house; host or cells: E. coli BL21(DE3)
From the text: Although peptide Y474 can block Nck-mediated LLPS, the requirement of a high concentration of the blocker peptide is hard to achieve inside the cell. […] The side chains of the Nck lysine residues are pointing toward the residues at pY+1 and pY+2 positions with distances of only 4 to 6 Å. This unique feature gives us an opportunity to design covalent blockers for Nck-SH2 by installing electrophiles at the pY+1 or pY+2 positions to enable a proximal conjugation reaction with one of the lysine residues. Covalent blockage through the characteristic lysine residues will maximize the specificity of the inhibitor toward Nck-SH2. As sulfonyl fluoride has been reported to react with proteinaceous nucleophiles such as lysine, histidine, or cysteine,[34] we installed a sulfonyl fluoride group on the side chain of diaminopropionic acid, giving an unnatural amino acid X1 at different positions such as pY+1 (Asp6) and pY+3 (Val8) of peptide EEHIpYDEVAAD. Besides the amino acid X1, we also included α-chloroacetyl-carrying amino acids X2 and X3, which may also react with proteineous nucleophiles. Electrophile-containing reactive peptides p1 to p11 were synthesized with a biotin tag at the N-termini (Figure 4b). After the reactive peptides were incubated with recombinant Nck protein at a 5:1 ratio at 37 °C in PBS for 1 h, the formation of covalently linked Nck–peptide conjugates could be observed, shown as new protein bands with molecular weights higher than that of Nck based on denatured SDS-PAGE and Western blotting analysis against biotin (Figure 4c). […] At 37 °C in PBS buffer, the 1:1 reaction efficiency reached 50% in 2 min (Figure S4 in the Supporting Information).
Figure 4 Covalently reactive peptides designed based on a Tir peptide. (a) Crystal structure of Nck-SH2 in complex with a peptide EEHIpYDEVAAD from EPEC protein Tir (PDB: 2CI9). (b) List of synthetic reactive peptides. (c) Unnatural amino acids in the peptides. (d) SDS-PAGE (top) and Western blotting (bottom) analyses showing covalent conjugation of the peptides with Nck. […]

Nck in Caco-2 cells = assay: In cell reaction of p1 with endogenous Nck (Western blot); assay type: cell-based; conditions: L17E and p1 (printed 40 mM and 10 mM) overnight; anti-Nck Western blot
Protocol: (§1) Caco-2 cells were seeded in a 24-well plate at a density of 1×10^4 cells for 24 h and pretreated with peptide complexes for 2 h. After washing with DMEM, cells were infected with EPEC at selected MOI values for 3 h at 37 ℃. Cells were then treated with gentamicin ([…]) for 2 h and lysed with 1% Triton X-100 for 15 min. The lysates were diluted 100 or 1000 folds to be spread on LB agar plates […]
Immunofluorescence Confocal Microscopy
Infected cells were fixed with 4% PFA and treated with 0.1% Triton X-100 for 10 min. And then the samples were blocked with 3% BSA for 1 h, incubated with anti-Tir antibody (Abbexa, C ambridge, UK) at 1:200 at 4℃ over night and followed by incubation with Alexa Fluo 488 goat anti -rabbit IgG secondary antibody at room temperature for 2 h. Cells were treated with DAPI (Invitrogen) for 10 min, then stained with phalloidin (Alexa Fluor 594 -conjugated phalloidin, Invitrogen) for 1 h and imaged by a confocal fluorescent microscope (SP8, Leica).
Caco -2 cells were treated with peptides overnight and lysed via RIPA buffer containing protease inhibitors for 15 min at 4℃. […]
SPSS 23.0 statistical software was used to process experimental data. The differences between mean ± SEM of three independent experiments were assessed by Student's t -test. […]

[1] = system: EPEC infection of Caco-2 cells; assay: EPEC infection assay of Caco-2 cells (CFU counts); assay type: cell-based, enteropathogenic Escherichia coli; conditions: L17E 40 μM
Protocol: Lastly, to examine whether pretreatment of Caco-2 cells with L17E/p1 could prevent EPEC infection, we first established a bacterial infection assay (Figure 7a). Caco-2 cells were pretreated with L17E/p1 for 2 h. After excess peptides were removed, Caco-2 cells were then infected with EPEC at different multiplicity of infection (MOI) values (MOI is commonly defined as the ratio of infectious bacteria to cells in a culture) for 3 h, and extra bacterial cells were removed from the culture. Next, gentamicin was added to the cell culture to remove EPEC that are merely attached to the surface of Caco-2 cells, leaving only engulfed EPEC inside Caco2 cells to be counted (gentamicin treatment will not kill intracellular bacteria due to its cellular impermeability). After gentamicin was washed away, cells were lysed to release EPEC cells inside, and the cell lysates were diluted to count the number of EPEC cells as colony-forming units (cfu) on agar plates.
as §1, with “1%” for “1% Triton X-100 for 15 min. The lysates were diluted 100 or 1000 folds to be spread on LB agar plates”
Triton X-100 for 15 min. […]
The sample was loaded onto 12% SDS/PAGE glycerol gel and then transferred onto a PVDF membrane using Bio-Rad […]. The membrane was blocked and incubated with a rabbit anti-Nck antibody (Abcam, Hong Kong) at 4 °C overnight, followed by a n anti -rabbit HRP -labeled secondary antibody (Abcam, Hong Kong).
SPSS 23.0 statistical software was used to process experimental data. The differences between mean ± SEM of three independent experiments were assessed by Student's t -test.

CC[C@H](C)[C@H](NC(=O)[C@H](Cc1c[nH]cn1)NC(=O)[C@H](CCC(=O)O)NC(=O)[C@H](CCC(=O)O)NC(=O)CCCC[C@@H]1SC[C@@H]2NC(=O)N[C@@H]21)C(=O)N[C@@H](Cc1ccc(OP(=O)(O)O)cc1)C(=O)N[C@@H](CNC(=O)c1ccc(S(=O)(=O)F)cc1)C(=O)N[C@@H](CCC(=O)O)C(=O)N[C@H](C(=O)N[C@@H](C)C(=O)N[C@@H](C)C(=O)N[C@@H](CC(=O)O)C(N)=O)C(C)C [p1] (Biotin-EEHI[pY][Dap](Benzoyl(4-SO2F))EVAAD-NH2; N-terminus and C-terminus assumed)
number of Nck–peptide conjugate bands (Nck; p1:Nck 5:1, 37 °C, SDS-PAGE): only one Nck–peptide conjugate band | reactivity with Nck (Nck; peptide:Nck 5:1, 37 °C, SDS-PAGE and anti-biotin Western blotting): highest cross-linking efficiency with Nck; also recorded: noticeable reactivity | reaction with endogenous Nck in cytosol (Nck in Caco-2 cells): reacted with the endogenous Nck in the cytosol of Caco-2 cells | efficacy compared with Y474 in anti-infection assay ([1]; p1 vs Y474 at lower concentrations): significantly higher efficacy than Y474 at lower concentrations | blockage of EPEC invasion/infection of Caco-2 cells ([1]; with L17E-mediated delivery): rendered Caco-2 cells resistant to EPEC infection; also recorded: can block EPEC invasion to Caco-2 cells
